In patent US12497402B2, “IRAK4 degraders and uses thereof” (priority 2021, dated 2025):
Values joined by “and” are separate entries in the source; they are usually repeats but may differ in a detail not shown here. Equal entries are not always repeated.

What was measured:
[1] = 4-week oral gavage toxicokinetic study with Compound A in dogs (plasma); conditions: dog; for half-life: plasma, dog plasma
Excerpt: The vehicle was HPBCD (Kleptose Oral Grade HPB) prepared in reverse osmosis water.
Assessment of toxicity was based on mortality, clinical observations, body weights, food consumption, ophthalmic observations, electrocardiographic (ECG) measurements, and clinical and anatomic pathology. Blood samples were collected for toxicokinetic evaluation.

[2] = 4-week oral gavage toxicity study with Compound A in dogs with 2-week recovery; format: in vivo; conditions: for Reversal of vacuolated macrophages at recovery sacrifice: 30 or 200/60 mg/kg/dose
[3] = system: TLR agonist (lipopolysaccharide and R848) and IL-1β-induced proinflammatory cytokine production; assay: In vitro cytokine release assays in PBMCs; format: cell-based; conditions: R848 and IL-1β stimulation, IL-6, TNF-α, GM-CSF, IL-8
[4] = system: MSU-crystal induced (TLR 2/4-dependent) inflammation; assay: Mouse air pouch model of MSU-crystal induced inflammation; format: in vivo; conditions: 3 days twice daily, 30 to 100 mg/kg
[5] = system: imiquimod psoriasis model (TLR 7/8-dependent); assay: Imiquimod psoriasis model; format: in vivo, mouse
[6] = In vivo pharmacokinetic studies in rats, dogs and monkeys
Solubility = format: physicochemical
Permeability = format: in vitro ADME
P-glycoprotein (P-gp) = P-glycoprotein (P-gp) (Homo sapiens, UniProt P08183); assay: P-gp substrate assessment in vitro; format: in vitro ADME
Sequence of P-glycoprotein (P-gp) (P08183 whole entry): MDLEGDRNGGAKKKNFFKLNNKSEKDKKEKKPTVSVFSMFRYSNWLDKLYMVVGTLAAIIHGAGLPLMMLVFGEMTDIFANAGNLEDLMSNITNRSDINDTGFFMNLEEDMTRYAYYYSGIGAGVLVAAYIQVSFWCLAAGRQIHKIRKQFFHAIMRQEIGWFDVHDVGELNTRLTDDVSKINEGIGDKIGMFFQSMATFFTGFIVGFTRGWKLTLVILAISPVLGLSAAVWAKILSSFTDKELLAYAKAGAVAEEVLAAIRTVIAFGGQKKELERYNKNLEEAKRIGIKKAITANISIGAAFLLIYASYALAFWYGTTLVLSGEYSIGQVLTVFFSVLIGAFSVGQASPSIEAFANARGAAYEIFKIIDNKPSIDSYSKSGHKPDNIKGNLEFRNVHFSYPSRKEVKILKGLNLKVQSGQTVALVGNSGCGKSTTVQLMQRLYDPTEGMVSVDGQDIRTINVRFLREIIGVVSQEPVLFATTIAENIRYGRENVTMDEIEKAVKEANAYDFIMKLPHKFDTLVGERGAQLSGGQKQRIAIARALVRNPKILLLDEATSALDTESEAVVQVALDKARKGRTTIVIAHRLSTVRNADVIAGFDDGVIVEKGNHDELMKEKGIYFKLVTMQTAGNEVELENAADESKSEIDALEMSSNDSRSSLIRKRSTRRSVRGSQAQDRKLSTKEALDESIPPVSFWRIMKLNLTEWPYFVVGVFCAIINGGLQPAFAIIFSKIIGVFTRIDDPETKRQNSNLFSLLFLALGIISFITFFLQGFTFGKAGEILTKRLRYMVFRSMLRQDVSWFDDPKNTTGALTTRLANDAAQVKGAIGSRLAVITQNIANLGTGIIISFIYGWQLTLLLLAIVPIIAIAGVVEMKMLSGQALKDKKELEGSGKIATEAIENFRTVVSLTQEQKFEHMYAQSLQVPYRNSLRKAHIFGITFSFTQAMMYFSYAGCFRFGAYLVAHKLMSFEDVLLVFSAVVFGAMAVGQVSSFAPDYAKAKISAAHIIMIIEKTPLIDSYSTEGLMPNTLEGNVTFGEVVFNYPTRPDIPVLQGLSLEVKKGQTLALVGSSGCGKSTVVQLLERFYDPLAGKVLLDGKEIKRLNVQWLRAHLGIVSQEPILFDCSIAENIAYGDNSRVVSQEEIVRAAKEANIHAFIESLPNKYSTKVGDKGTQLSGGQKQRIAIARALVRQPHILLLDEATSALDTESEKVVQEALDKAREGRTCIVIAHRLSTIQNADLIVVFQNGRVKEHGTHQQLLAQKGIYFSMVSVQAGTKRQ

[7] = target: T1, breast cancer resistance protein (BCRP) (Homo sapiens, UniProt Q9UNQ0); assay: BCRP substrate assessment in vitro; format: in vitro ADME
T1 sequence (Q9UNQ0 1-655): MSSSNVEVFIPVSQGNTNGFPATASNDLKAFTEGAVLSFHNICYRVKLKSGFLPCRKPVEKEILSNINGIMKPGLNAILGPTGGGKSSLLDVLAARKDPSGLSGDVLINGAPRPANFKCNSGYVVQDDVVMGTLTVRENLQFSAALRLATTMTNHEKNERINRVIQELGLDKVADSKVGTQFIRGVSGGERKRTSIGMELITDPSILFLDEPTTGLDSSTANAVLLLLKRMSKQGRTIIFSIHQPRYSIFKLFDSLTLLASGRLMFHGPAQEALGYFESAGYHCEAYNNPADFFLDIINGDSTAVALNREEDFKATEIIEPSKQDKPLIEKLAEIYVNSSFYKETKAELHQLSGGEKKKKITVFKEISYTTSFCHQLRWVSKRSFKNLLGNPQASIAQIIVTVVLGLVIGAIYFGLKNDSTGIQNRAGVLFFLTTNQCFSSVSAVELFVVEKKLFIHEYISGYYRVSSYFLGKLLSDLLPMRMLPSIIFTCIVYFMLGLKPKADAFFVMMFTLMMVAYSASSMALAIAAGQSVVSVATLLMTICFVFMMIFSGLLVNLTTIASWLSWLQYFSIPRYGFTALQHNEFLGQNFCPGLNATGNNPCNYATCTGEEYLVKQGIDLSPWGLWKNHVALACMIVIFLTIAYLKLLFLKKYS

Plasma protein binding = format: in vitro ADME; conditions: across nonclinical species and humans
[8] = Red blood cell partitioning; format: in vitro ADME
[9] = Distribution studies in rats; format: in vivo, rat
cytochrome P450 (CYP) = assay: In vitro and in vivo metabolism studies; format: in vitro ADME
[10] = Excretion study in bile duct-cannulated (BDC) rats; format: in vivo, rat
CYP2C19 = CYP2C19 (Homo sapiens, UniProt P33261); assay: In vitro drug-drug interaction study, CYP2C19; format: in vitro ADME
Sequence of CYP2C19 (P33261 whole entry): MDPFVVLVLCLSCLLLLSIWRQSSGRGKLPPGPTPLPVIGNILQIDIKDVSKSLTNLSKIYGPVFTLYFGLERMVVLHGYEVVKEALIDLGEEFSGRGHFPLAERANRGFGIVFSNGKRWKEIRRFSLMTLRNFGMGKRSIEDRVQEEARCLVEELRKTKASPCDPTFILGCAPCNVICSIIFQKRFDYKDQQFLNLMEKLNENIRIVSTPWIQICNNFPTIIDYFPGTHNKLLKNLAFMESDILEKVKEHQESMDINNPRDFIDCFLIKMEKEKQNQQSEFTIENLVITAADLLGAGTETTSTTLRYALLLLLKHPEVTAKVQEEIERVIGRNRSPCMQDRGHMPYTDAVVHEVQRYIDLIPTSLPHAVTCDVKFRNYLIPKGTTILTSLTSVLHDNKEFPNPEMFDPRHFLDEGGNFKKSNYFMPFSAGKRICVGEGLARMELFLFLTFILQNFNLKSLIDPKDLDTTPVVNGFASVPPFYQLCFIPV

CYP3A4 = CYP3A4 (Homo sapiens, UniProt P08684); assay: In vitro drug-drug interaction study, CYP3A4; format: in vitro ADME
Sequence of CYP3A4 (P08684 whole entry): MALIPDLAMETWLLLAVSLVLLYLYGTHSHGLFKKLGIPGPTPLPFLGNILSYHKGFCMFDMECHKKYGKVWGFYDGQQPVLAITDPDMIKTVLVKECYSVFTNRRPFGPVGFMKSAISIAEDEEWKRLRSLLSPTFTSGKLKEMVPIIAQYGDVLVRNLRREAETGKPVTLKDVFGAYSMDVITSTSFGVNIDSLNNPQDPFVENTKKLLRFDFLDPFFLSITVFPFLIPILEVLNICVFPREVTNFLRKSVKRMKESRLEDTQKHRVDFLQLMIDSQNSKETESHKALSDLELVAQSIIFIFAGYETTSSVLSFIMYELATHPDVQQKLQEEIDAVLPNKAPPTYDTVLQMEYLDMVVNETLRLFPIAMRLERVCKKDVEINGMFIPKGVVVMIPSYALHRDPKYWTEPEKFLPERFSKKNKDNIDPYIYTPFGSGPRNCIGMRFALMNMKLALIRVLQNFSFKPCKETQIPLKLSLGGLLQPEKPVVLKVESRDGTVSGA

BCRP = target: T2, BCRP (Homo sapiens, UniProt Q9UNQ0); assay: In vitro drug-drug interaction study, BCRP efflux; format: in vitro ADME
T2 sequence (Q9UNQ0 1-655): T1 sequence (Q9UNQ0 1-655)

Structure (SMILES): Cn1c(=O)n(C2CCC(=O)NC2=O)c2cccc(C#CCOC3CCN(C[C@H]4CC[C@H](n5cc(NC(=O)c6cnn7ccc(N8C[C@H]9C[C@@H]8CO9)nc67)c(C(F)F)n5)CC4)CC3)c21 (stereo partly drawn) [Compound A, 5-((1R,4R)-2-oxa-5-azabicyclo[2.2.1]heptan-5-yl)-N-(3-(difluoromethyl)-1-((1r,4R)-4-((4-((3-(1-(2,6-dioxopiperidin-3-yl)-3-methyl-2-oxo-2,3-dihydro-1H-benzo[d]imidazol-4-yl)prop-2-yn-1-yl)oxy)piperidin-1-yl)methyl)cyclohexyl)-1H-pyrazol-4-yl)pyrazolo[1,5-a]pyrimidine-3-carboxamide]
- half-life ([1]; beagle, po, 30 mg/kg, t1/2, elimination half-life, N = 1, Day 1, Group 3, Cmpd A 30 mg/kg/dose oral gavage): 6.54 h
- Potential accumulation after multiple doses ([1]; both, beagle, in vivo): up to 2.14 fold
- Sex differences in mean Cmax and AUC0-24 values ([1]; both, beagle, in vivo): less than 2 fold
- median Tmax ([1]; both, beagle, in vivo, po): 5.00 to 12.0 h
- Tmax ([1]; both, beagle, in vivo, po, 5 mg/kg, Tmax): 4 h
- Tmax ([1]; both, beagle, in vivo, po, 30 mg/kg, Tmax): 5 h and 4 h
- Tmax ([1]; both, beagle, in vivo, po, 60 mg/kg, Tmax): 6 h
- Tmax ([1]; both, beagle, in vivo, po, 60 mg/kg/day, median Tmax): 6 h
- Tmax ([1]; both, beagle, in vivo, po, 100 mg/kg, Tmax): 9 h
- Tmax ([1]; both, beagle, in vivo, po, 200 mg/kg, Tmax): 12 h
- Tmax ([1]; both, beagle, in vivo, po, median Tmax): 5 to 9 h
- half-life ([1]; both, beagle, po, 5 mg/kg, t1/2, mean elimination half-life, Day 1, Group 2, Cmpd A 5 mg/kg/dose oral gavage): 7.6 h
- half-life ([1]; both, beagle, po, 5 mg/kg, t1/2, mean elimination half-life, Day 8, Group 2, Cmpd A 5 mg/kg/dose oral gavage): 8.08 h
- half-life ([1]; both, beagle, po, 5 mg/kg, t1/2, mean elimination half-life, Day 28, Group 2, Cmpd A 5 mg/kg/dose oral gavage): 8.19 h
- half-life ([1]; both, beagle, po, mean half-life (t1/2), Day 1, range across groups): 6.54 to 7.6 h
- Dose proportionality of increases in mean Cmax and AUC0-24 ([1]; in vivo): less than dose proportional
- NOAEL at 4 weeks ([2]; both sexes, beagle, dog, in vivo, dogs, oral gavage once daily, 4 weeks, read-out: no observed adverse effect level (NOAEL)): 60 mg/kg/day
- Body weight, body weight gain, food consumption ([2]; dog, in vivo): No Compound A-related alterations in mean body weight, body weight gain, or food consumption were noted at any dose level
- Clinical and ophthalmic observations ([2]; dog, in vivo): No Compound A-related clinical observations or abnormal ophthalmic observations were noted
- ECG observation ([2]; dog, in vivo): No Compound A-related abnormalities were noted during the dosing phase ECG observation
- Hematology, coagulation, clinical chemistry, urinalysis ([2]; dog, in vivo): No Compound A-related effects in scheduled hematology, coagulation, clinical chemistry, or urinalysis test results were identified
- Organ weights and macroscopic observations ([2]; dog, in vivo): No Compound A-related organ weight differences or macroscopic observations were noted
- Microscopic findings (vacuolated macrophages) ([2]; dog, in vivo, 30 mg/kg): increases of vacuolated macrophages in the small intestine, lymphoid tissues, and lung were considered nonadverse
- Mortality ([2]; female, beagle, dog, in vivo, 100 mg/kg, 4 day (of dosing phase)): One female administered 100 mg/kg/dose was sacrificed in a moribund condition on Day 4 of the dosing phase
- Reversal of vacuolated macrophages at recovery sacrifice ([2]; mesenteric lymph node): lack of reversal after 2 weeks
- Reversal of vacuolated macrophages at recovery sacrifice ([2]; small intestine, GALT/Peyer's patches, mandibular lymph nodes, lung, 2-week recovery): partial reversal
- Reversal of vacuolated macrophages at recovery sacrifice ([2]; spleen, 2-week recovery): complete reversal
- IC50 (inhibition of proinflammatory cytokine production) [3]: low nM range
- IRAK4 levels in the spleen [4]: significantly reduced IRAK4 levels in the spleen
- Inflammatory exudate (neutrophils, IL-1β) [4]: significantly reduced the inflammatory exudate
- IRAK4 degradation in spleen and skin ([5]; mouse, in vivo): dose-dependent degradation of IRAK4 in the spleen and skin
- Skin thickness ([5]; mouse, in vivo): reduction in skin thickness
- IL-1β in the skin ([5]; p<0.0001): significant reduction
- IL-6 in the skin ([5]; p<0.05, 300 mg/kg only): significant reduction
- Bioavailability [6]: low to moderate bioavailability
- Clearance [6]: moderate to high clearance
- Terminal half-life [6]: moderate terminal half-life
- Volume of distribution at steady state [6]: high volume of distribution at steady state
- Solubility (Solubility): low solubility
- Permeability (Permeability): moderate permeability
- P-gp substrate status (P-glycoprotein (P-gp)): substrate
- BCRP substrate status [7]: substrate
- Plasma protein binding (Plasma protein binding): highly bound to plasma proteins
- Partitioning into red blood cells [8]: did not significantly partition into red blood cells
- CNS penetration [9]: limited penetration into the central nervous system (CNS)
- Tissue distribution [9]: extensively distributed into tissues
- Main metabolizing enzyme (cytochrome P450 (CYP)): primarily metabolized by CYP3A4
- Metabolic pathway (cytochrome P450 (CYP); in vitro and in vivo): underwent oxidative metabolism via cytochrome P450 (CYP)
- Biliary and intestinal excretion [10]: minor to moderate biliary and intestinal excretion as parent drug
- Renal clearance [10]: negligible renal clearance
- Inhibition of CYP2C19 (CYP2C19): potential time dependent inhibition (TDI)
- Inhibition of CYP3A4 (CYP3A4): potential time dependent inhibition (TDI)
- Inhibition of BCRP efflux (BCRP): inhibited BCRP efflux
